Measurements as given in the supplement of paper PMC10307832.

Legend:
AZD1208 + Tozasertib = compound: N[C@@H]1CCCN(c2c(/C=C3\SC(=O)NC3=O)cccc2-c2ccccc2)C1 [AZD1208] + Cc1cc(Nc2cc(N3CCN(C)CC3)nc(Sc3ccc(NC(=O)C4CC4)cc3)n2)n[nH]1 [Tozasertib] (partner 0.1 µM); assay: relative viability (nuclei count vs DMSO), 5 days (fraction); higher = more cells survive
Summary of the method: (§1)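 Lung cancer cell lines, seeded in 1536-well plates, were treated the following day by pin tool with a single drug or with five library-drug doses (not always all listed) in √10 steps on top of a fixed anchor-drug dose. Cells were fixed and nuclei stained in one step after 5 days, and nuclei were counted. Relative viability is the nuclei count for treated wells divided by that for vehicle wells, reported as medians of duplicate plates.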

XMD14-99 + Foretinib = compound: CN1CCN(CC1)C2=CC(=C(C=C2)NC3=NC(=C(S3)C(=O)C4=C(C=CC=C4Cl)Cl)N)OC [XMD14-99] + COc1cc2c(Oc3ccc(NC(=O)C4(C(=O)Nc5ccc(F)cc5)CC4)cc3F)ccnc2cc1OCCCN1CCOCC1 [Foretinib] (partner 0.25 µM); assay: as above
Summary of the method: as §1

| Cell Line | relative viability (AZD1208 + Tozasertib; first compound 0.08 µM) | relative viability (AZD1208 + Tozasertib; first compound 0.253 µM) | relative viability (AZD1208 + Tozasertib; first compound 0.8 µM) | relative viability (AZD1208 + Tozasertib; first compound 2.53 µM) | relative viability (AZD1208 + Tozasertib; first compound 8 µM) | relative viability (XMD14-99 + Foretinib; first compound 0.08 µM) | relative viability (XMD14-99 + Foretinib; first compound 0.8 µM) | relative viability (XMD14-99 + Foretinib; first compound 2.53 µM) | relative viability (XMD14-99 + Foretinib; first compound 8 µM) |
| --- | --- | --- | --- | --- | --- | --- | --- | --- | --- |
| NCI-H1975 | 0.735 | 0.712 | 0.736 | 0.829 | 0.639 | 1.01 | 0.92 | 0.924 | 0.817 |
| CAL-12T | 0.35 | 0.355 | 0.322 | 0.323 | 0.271 | 1.09 | 1.06 | 0.876 | 1.02 |
| NCI-H1623 | 0.456 | 0.394 | 0.403 | 0.426 | 0.393 | 0.852 | 0.86 | 0.88 | 0.68 |
| HCC-44 | 0.876 | 1.04 | 0.877 | 0.896 | 0.866 |  |  |  |  |
| EKVX | 0.444 | 0.462 | 0.376 | 0.388 | 0.262 | 0.768 | 0.888 | 0.876 | 0.662 |
| NCI-H1651 | 0.698 | 0.661 | 0.652 | 0.529 | 0.408 | 0.811 | 0.706 | 0.866 | 0.694 |
| NCI-H1944 | 0.242 | 0.225 | 0.226 | 0.214 | 0.202 | 0.886 | 0.841 | 0.7 | 0.631 |
| NCI-H1703 |  |  |  |  |  | 0.345 | 0.329 | 0.339 | 0.273 |
| Calu-6 |  |  |  |  |  | 0.897 | 0.905 | 0.843 | 0.593 |
| EBC-1 |  |  |  |  |  | 0.113 | 0.11 | 0.112 | 0.0979 |
| A-427 | 0.196 | 0.195 | 0.212 | 0.18 | 0.185 | 1.04 | 0.988 | 0.814 | 0.712 |
| NCI-H2405 | 0.726 | 0.721 | 0.693 | 0.71 | 0.635 | 1.04 | 1.03 | 1.02 | 0.838 |
| NCI-H1355 | 0.539 | 0.474 | 0.407 | 0.389 | 0.308 | 0.994 | 0.913 | 0.808 | 0.706 |
| NCI-H358 | 0.109 | 0.0897 | 0.104 | 0.101 | 0.091 | 0.759 | 0.745 | 0.574 | 0.392 |
| RERF-LC-KJ | 0.505 | 0.423 | 0.56 | 0.519 | 0.384 | 0.462 | 0.908 | 0.867 | 0.803 |
| NCI-H23 | 0.4 | 0.365 | 0.336 | 0.376 | 0.272 | 0.908 | 0.981 | 0.843 | 0.821 |
| HOP-62 | 0.372 | 0.302 | 0.372 | 0.287 | 0.263 | 1.01 | 1.05 | 1.02 | 1.01 |
| HARA | 0.11 | 0.0998 | 0.111 | 0.0918 | 0.0796 | 0.791 | 0.793 | 0.748 | 0.757 |
| PC-14 | 0.554 | 0.55 | 0.467 | 0.503 | 0.463 | 0.964 | 0.969 | 0.864 | 0.852 |
| NCI-H1755 | 0.525 | 0.532 | 0.52 | 0.417 | 0.358 | 0.916 | 0.9 | 0.817 | 0.687 |

| Cell Line | relative viability (AZD1208 + Tozasertib; first compound 0.08 µM) | relative viability (AZD1208 + Tozasertib; first compound 0.253 µM) | relative viability (AZD1208 + Tozasertib; first compound 0.8 µM) | relative viability (AZD1208 + Tozasertib; first compound 2.53 µM) | relative viability (AZD1208 + Tozasertib; first compound 8 µM) | relative viability (XMD14-99 + Foretinib; first compound 0.08 µM) | relative viability (XMD14-99 + Foretinib; first compound 0.8 µM) | relative viability (XMD14-99 + Foretinib; first compound 2.53 µM) | relative viability (XMD14-99 + Foretinib; first compound 8 µM) |
| --- | --- | --- | --- | --- | --- | --- | --- | --- | --- |
| HCC-78 | 0.456 | 0.412 | 0.437 | 0.288 | 0.256 | 0.506 | 0.489 | 0.566 | 0.53 |
| IA-LM |  |  |  |  |  | 1.05 | 0.964 | 0.978 | 0.458 |
| NCI-H441 | 0.641 | 0.555 | 0.57 | 0.508 | 0.375 | 0.766 | 0.993 | 0.849 | 0.751 |
| NCI-H322M | 0.429 | 0.492 | 0.463 | 0.463 | 0.439 | 1.01 | 0.893 | 0.932 | 0.736 |
| NCI-H1993 | 0.667 | 0.52 | 0.526 | 0.566 | 0.543 | 0.804 | 0.674 | 0.643 | 0.595 |
| COR-L23 | 0.152 | 0.174 | 0.187 | 0.182 | 0.171 | 0.901 | 0.962 | 0.812 | 0.572 |
| NCI-H2126 | 0.743 | 0.784 | 0.816 | 0.632 | 0.66 | 1.19 | 1.13 | 1.2 | 0.832 |
| LC-2-ad | 0.397 | 0.381 | 0.355 | 0.363 | 0.318 | 1 | 1.01 | 0.849 | 0.836 |
| NCI-H1915 | 0.427 | 0.378 | 0.367 | 0.249 | 0.244 | 1.06 | 1.02 | 0.961 | 0.859 |
| NCI-H1793 | 0.302 | 0.313 | 0.314 | 0.296 | 0.267 | 0.704 | 0.608 | 0.644 | 0.641 |
| NCI-H2085 | 0.811 | 0.858 | 0.714 | 0.868 | 0.771 | 0.915 | 0.959 | 0.704 | 0.551 |
| COR-L 105 | 0.35 | 0.384 | 0.376 |  | 0.348 | 1.06 | 1.25 | 0.991 | 0.734 |
| SK-LU-1 | 0.298 | 0.298 | 0.246 | 0.285 | 0.22 | 0.818 | 0.803 | 0.758 | 0.477 |
| LXF-289 | 0.178 | 0.158 | 0.16 | 0.131 | 0.123 | 0.964 | 0.949 | 0.923 | 0.898 |
| PC-3 [JPC-3] | 0.9 | 0.989 | 0.906 | 0.886 | 0.78 | 1.06 | 0.957 | 0.858 | 0.762 |
| NCI-H661 | 0.351 | 0.347 | 0.361 | 0.358 | 0.355 | 0.93 | 0.883 | 0.796 | 0.681 |
| NCI-H1666 | 0.535 | 0.6 | 0.513 | 0.644 | 0.58 | 1.02 | 0.859 | 0.866 | 0.712 |
| NCI-H2087 | 0.245 | 0.2 | 0.264 | 0.209 | 0.212 | 1.05 | 0.86 | 0.746 | 0.569 |
| NCI-H1734 | 0.272 | 0.26 | 0.247 | 0.219 | 0.227 | 0.821 | 0.826 | 0.793 | 0.7 |
